Values of other authors as cited in patent publication US20220313671A1 (Chiesi Farmaceutici S.p.A., priority 2011, published 2022).

CCCC(=O)OCOC(=O)C1=C(C)NC(C)=C(C(=O)OC)C1c1cccc(Cl)c1Cl (stereo not drawn) [clevidipine]
full offset of activity (rapid offset of activity): 5 to 15 min
onset of activity (rapid onset of activity): 2 to 4 min
return of blood pressure to pre-treatment levels (time after discontinuation of clevidipine): 5 to 15 min
